Assay results taken from article PMC7531004, “Discovery of gramicidin A analogues with altered activities by multidimensional screening of a one-bead-one-compound library” (Nature Communications, 2020).
Where a SMILES comes first, the peptide text is derived from it. [ ]: non-standard residue; d: D form. The star is where a group is joined. NHCH2CH2OH = OCCN*; For = O=C*

Legend:
[1] = tested on: P388 mouse leukemia cells; conditions: 92 h
How it was run: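 Peptide stocks diluted 250× in growth medium; P388 cells 1 × 10^4 cells/mL final; 37 °C, 5% CO2, 92 h. WST-1 + 1-methoxy PMS, 4 h, A415. Output: % viability.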

[2] = tested on: Streptococcus pyogenes SSI-9; assay: Antibacterial activity assay of bead-derived peptides (three concentrations); format: cell-based; set-up: key: +++: inhibition by the 640-fold diluted peptide solution; ++: inhibition by the 160-fold diluted solution; +: inhibition by the 40-fold diluted solution; -: no inhibition; conditions: S. pyogenes, bead-derived peptide solution, three concentrations
How it was run: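 Growth inhibition scored visually as precipitated bacteria after 37 °C, 18 h incubation. Streptococcus pyogenes SSI-9 inoculum of 2 × 10^5 CFU in Ca2+/Mg2+-adjusted Mueller Hinton broth plus 5% laked horse blood; peptides tested at three levels: stock, 4-fold and 16-fold DMSO dilutions.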

[3] = H+/Na+ transport assay of bead-derived peptides (one-point); format: biochemical; set-up: key: relative activity; mean of two control wells = 1.00; conditions: bead-derived peptide solution, EYPC/EYPG LUVs;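 also: relative to parent gramicidin A activity set to 1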
How it was run: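 Miniaturized 96-well format. LUVs with entrapped pyranine (1.0 mM) were exposed to peptide for 30 min at RT. Intensities were expressed relative to full lysis by Triton X-100 and no treatment, with control-well mean = 1.00.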

**Q.** For `CC(C)C[C@@H](NC(=O)[C@H](C)NC(=O)[C@H](NC(=O)[C@H](C)NC(=O)CNC(=O)[C@@H](NC=O)C(C)C)C(C)C)C(=O)N[C@H](C(=O)N[C@@H](C(=O)N[C@@H](Cc1c[nH]c2ccccc12)C(=O)N[C@@H](C(=O)N[C@@H](Cc1c[nH]c2ccccc12)C(=O)N[C@H](CC(C)C)C(=O)N[C@@H](Cc1c[nH]c2ccccc12)C(=O)N[C@@H](C(=O)N[C@@H](Cc1c[nH]c2ccccc12)C(=O)NCCO)[C@H](C)O)C(C)C)C(C)C)C(C)C` [compound 12285] (For-VGA[dV]A[dL]V[dV]W[dV]W[dL]W[dT]W-NHCH2CH2OH), which cell viability/% [1] is on record?
**A.** 100.0%

**Q.** And the antibacterial activity [2]?
**A.** -

**Q.** What about the “H+/Na+ transport activity normalized against the value of 1 (1.00)” value (shortened to “H+/Na+ transport activity normalized”) [3] of the same compound?
**A.** 1.01

**Q.** Which results are given for `CC(C)C[C@@H](NC(=O)[C@H](Cc1c[nH]c2ccccc12)NC(=O)[C@@H](CC(C)C)NC(=O)[C@H](Cc1c[nH]c2ccccc12)NC(=O)[C@@H](CC(C)C)NC(=O)[C@H](Cc1c[nH]c2ccccc12)NC(=O)[C@H](NC(=O)[C@@H](NC(=O)[C@H](NC(=O)[C@H](C)NC(=O)[C@H](NC(=O)[C@H](C)NC(=O)CNC(=O)[C@@H](NC=O)C(C)C)C(C)C)C(C)C)C(C)C)[C@H](C)O)C(=O)N[C@@H](Cc1c[nH]c2ccccc12)C(=O)NCCO` [compound 12287] (For-VGA[dV]A[dV]V[dT]W[dL]W[dL]W[dL]W-NHCH2CH2OH)?
**A.** cell viability/% [1]: 100.0%; antibacterial activity [2]: -; H+/Na+ transport activity normalized against the value of 1 (1.00) [3]: 1.16

**Q.** Which cell viability/% [1] does the source give for `CC(C)C[C@@H](NC(=O)[C@H](Cc1c[nH]c2ccccc12)NC(=O)[C@H](NC(=O)[C@@H](NC(=O)[C@H](NC(=O)[C@H](C)NC(=O)[C@H](NC(=O)[C@H](C)NC(=O)CNC(=O)[C@@H](NC=O)C(C)C)[C@H](C)O)C(C)C)C(C)C)C(C)C)C(=O)N[C@@H](Cc1c[nH]c2ccccc12)C(=O)N[C@@H](C(=O)N[C@@H](Cc1c[nH]c2ccccc12)C(=O)N[C@@H](C(=O)N[C@@H](Cc1c[nH]c2ccccc12)C(=O)NCCO)C(C)C)C(C)C` [compound 12298] (For-VGA[dT]A[dV]V[dV]W[dL]W[dV]W[dV]W-NHCH2CH2OH) here?
**A.** 100.0%

**Q.** And the antibacterial activity [2]?
**A.** -

**Q.** What about the “H+/Na+ transport activity normalized” value [3] of the same compound?
**A.** 1.04

**Q.** For `CNC(=O)C[C@@H](NC(=O)[C@@H](NC(=O)[C@@H](CC(C)C)NC(=O)[C@H](C)NC(=O)[C@@H](CC(C)C)NC(=O)[C@H](C)NC(=O)CNC(=O)[C@@H](NC=O)C(C)C)C(C)C)C(=O)N[C@@H](Cc1c[nH]c2ccccc12)C(=O)N[C@@H](C(=O)N[C@@H](Cc1c[nH]c2ccccc12)C(=O)N[C@@H](C(=O)N[C@@H](Cc1c[nH]c2ccccc12)C(=O)N[C@H](CC(C)C)C(=O)N[C@@H](Cc1c[nH]c2ccccc12)C(=O)NCCO)C(C)C)C(C)C` [compound 12307] (For-VGA[dL]A[dL]V[dD](NHMe)W[dV]W[dV]W[dL]W-NHCH2CH2OH), which cell viability/% [1] is on record?
**A.** 100.0%

**Q.** And the antibacterial activity [2]?
**A.** -

**Q.** And the “H+/Na+ transport activity normalized” value [3]?
**A.** 1.32

**Q.** With `CNC(=O)C[C@@H](NC(=O)[C@@H](NC(=O)[C@H](NC(=O)[C@H](C)NC(=O)[C@H](NC(=O)[C@H](C)NC(=O)CNC(=O)[C@@H](NC=O)C(C)C)C(C)C)C(C)C)C(C)C)C(=O)N[C@@H](Cc1c[nH]c2ccccc12)C(=O)N[C@H](CC(C)C)C(=O)N[C@@H](Cc1c[nH]c2ccccc12)C(=O)N[C@H](CC(C)C)C(=O)N[C@@H](Cc1c[nH]c2ccccc12)C(=O)N[C@@H](C(=O)N[C@@H](Cc1c[nH]c2ccccc12)C(=O)NCCO)C(C)C` [compound 12373] (For-VGA[dV]A[dV]V[dD](NHMe)W[dL]W[dL]W[dV]W-NHCH2CH2OH) as the compound, how does the cell viability/% [1] read?
**A.** 100.0%

**Q.** And the antibacterial activity [2]?
**A.** -

**Q.** What about the “H+/Na+ transport activity normalized” value [3] of the same compound?
**A.** 1.04

**Q.** Which cell viability/% [1] does the source give for `CC(C)C[C@@H](NC(=O)[C@H](C)NC(=O)CNC(=O)[C@@H](NC=O)C(C)C)C(=O)N[C@@H](C)C(=O)N[C@@H](C(=O)N[C@H](C(=O)N[C@@H](C(=O)N[C@@H](Cc1c[nH]c2ccccc12)C(=O)N[C@@H](C(=O)N[C@@H](Cc1c[nH]c2ccccc12)C(=O)N[C@@H](C(=O)N[C@@H](Cc1c[nH]c2ccccc12)C(=O)N[C@@H](C(=O)N[C@@H](Cc1c[nH]c2ccccc12)C(=O)NCCO)C(C)C)C(C)C)C(C)C)[C@H](C)O)C(C)C)C(C)C` [compound 12429] (For-VGA[dL]A[dV]V[dT]W[dV]W[dV]W[dV]W-NHCH2CH2OH) here?
**A.** 100.0%

**Q.** What about the antibacterial activity [2] of the same compound?
**A.** -

**Q.** What about the “H+/Na+ transport activity normalized” value [3] of the same compound?
**A.** 1.03

**Q.** Which cell viability/% [1] does the source give for `CC(C)C[C@@H](NC(=O)[C@H](Cc1c[nH]c2ccccc12)NC(=O)[C@@H](CC(C)C)NC(=O)[C@H](Cc1c[nH]c2ccccc12)NC(=O)[C@H](NC(=O)[C@H](Cc1c[nH]c2ccccc12)NC(=O)[C@@H](CC(C)C)NC(=O)[C@@H](NC(=O)[C@H](NC(=O)[C@H](C)NC(=O)[C@H](NC(=O)[C@H](C)NC(=O)CNC(=O)[C@@H](NC=O)C(C)C)C(C)C)C(C)C)C(C)C)C(C)C)C(=O)N[C@@H](Cc1c[nH]c2ccccc12)C(=O)NCCO` [compound 12538] (For-VGA[dV]A[dV]V[dL]W[dV]W[dL]W[dL]W-NHCH2CH2OH) here?
**A.** 2.1%

**Q.** And the antibacterial activity [2]?
**A.** -

**Q.** What about the “H+/Na+ transport activity normalized” value [3] of the same compound?
**A.** 1.01

**Q.** For `CNC(=O)C[C@@H](NC(=O)[C@@H](NC(=O)[C@@H](CC(C)C)NC(=O)[C@H](C)NC(=O)[C@H](NC(=O)[C@H](C)NC(=O)CNC(=O)[C@@H](NC=O)C(C)C)C(C)C)C(C)C)C(=O)N[C@@H](Cc1c[nH]c2ccccc12)C(=O)N[C@@H](C(=O)N[C@@H](Cc1c[nH]c2ccccc12)C(=O)N[C@@H](C(=O)N[C@@H](Cc1c[nH]c2ccccc12)C(=O)N[C@@H](C(=O)N[C@@H](Cc1c[nH]c2ccccc12)C(=O)NCCO)C(C)C)C(C)C)C(C)C` [compound 12576] (For-VGA[dV]A[dL]V[dD](NHMe)W[dV]W[dV]W[dV]W-NHCH2CH2OH), which cell viability/% [1] is on record?
**A.** 100.0%

**Q.** And the antibacterial activity [2]?
**A.** -

**Q.** What about the “H+/Na+ transport activity normalized” value [3] of the same compound?
**A.** 1.09

**Q.** For `CC(C)C[C@@H](NC(=O)[C@H](Cc1c[nH]c2ccccc12)NC(=O)[C@H](NC(=O)[C@H](Cc1c[nH]c2ccccc12)NC(=O)[C@H](NC(=O)[C@H](Cc1c[nH]c2ccccc12)NC(=O)[C@H](NC(=O)[C@@H](NC(=O)[C@H](NC(=O)[C@H](C)NC(=O)[C@H](NC(=O)[C@H](C)NC(=O)CNC(=O)[C@@H](NC=O)C(C)C)C(C)C)C(C)C)C(C)C)C(C)C)C(C)C)C(C)C)C(=O)N[C@@H](Cc1c[nH]c2ccccc12)C(=O)NCCO` [compound 12606] (For-VGA[dV]A[dV]V[dV]W[dV]W[dV]W[dL]W-NHCH2CH2OH), which cell viability/% [1] is on record?
**A.** 100.0%

**Q.** What about the antibacterial activity [2] of the same compound?
**A.** -

**Q.** What about the “H+/Na+ transport activity normalized” value [3] of the same compound?
**A.** 1.05

**Q.** Which results are given for `CNC(=O)C[C@@H](NC(=O)[C@@H](NC(=O)[C@H](NC(=O)[C@H](C)NC(=O)[C@@H](CC(C)C)NC(=O)[C@H](C)NC(=O)CNC(=O)[C@@H](NC=O)C(C)C)C(C)C)C(C)C)C(=O)N[C@@H](Cc1c[nH]c2ccccc12)C(=O)N[C@@H](C(=O)N[C@@H](Cc1c[nH]c2ccccc12)C(=O)N[C@@H](C(=O)N[C@@H](Cc1c[nH]c2ccccc12)C(=O)N[C@H](CC(C)C)C(=O)N[C@@H](Cc1c[nH]c2ccccc12)C(=O)NCCO)C(C)C)C(C)C` [compound 12636] (For-VGA[dL]A[dV]V[dD](NHMe)W[dV]W[dV]W[dL]W-NHCH2CH2OH)?
**A.** cell viability/% [1]: 100.0%; antibacterial activity [2]: -; H+/Na+ transport activity normalized against the value of 1 (1.00) [3]: 1.21

**Q.** For `CNC(=O)C[C@@H](NC(=O)[C@@H](NC(=O)[C@@H](CC(C)C)NC(=O)[C@H](C)NC(=O)[C@H](NC(=O)[C@H](C)NC(=O)CNC(=O)[C@@H](NC=O)C(C)C)C(C)C)C(C)C)C(=O)N[C@@H](Cc1c[nH]c2ccccc12)C(=O)N[C@H](CC(C)C)C(=O)N[C@@H](Cc1c[nH]c2ccccc12)C(=O)N[C@@H](C(=O)N[C@@H](Cc1c[nH]c2ccccc12)C(=O)N[C@H](CC(C)C)C(=O)N[C@@H](Cc1c[nH]c2ccccc12)C(=O)NCCO)C(C)C` [compound 12687] (For-VGA[dV]A[dL]V[dD](NHMe)W[dL]W[dV]W[dL]W-NHCH2CH2OH), which cell viability/% [1] is on record?
**A.** 100.0%

**Q.** And the antibacterial activity [2]?
**A.** -

**Q.** What about the “H+/Na+ transport activity normalized” value [3] of the same compound?
**A.** 1.29

**Q.** Which results are given for `CNC(=O)C[C@@H](NC(=O)[C@H](Cc1c[nH]c2ccccc12)NC(=O)[C@H](NC(=O)[C@H](Cc1c[nH]c2ccccc12)NC(=O)[C@H](NC(=O)[C@H](Cc1c[nH]c2ccccc12)NC(=O)[C@@H](CC(C)C)NC(=O)[C@@H](NC(=O)[C@H](NC(=O)[C@H](C)NC(=O)[C@H](NC(=O)[C@H](C)NC(=O)CNC(=O)[C@@H](NC=O)C(C)C)C(C)C)C(C)C)C(C)C)C(C)C)C(C)C)C(=O)N[C@@H](Cc1c[nH]c2ccccc12)C(=O)NCCO` [compound 12691] (For-VGA[dV]A[dV]V[dL]W[dV]W[dV]W[dD](NHMe)W-NHCH2CH2OH)?
**A.** cell viability/% [1]: 100.0%; antibacterial activity [2]: -; H+/Na+ transport activity normalized against the value of 1 (1.00) [3]: 1.11

**Q.** For `CNC(=O)C[C@@H](NC(=O)[C@@H](NC(=O)[C@@H](CC(C)C)NC(=O)[C@H](C)NC(=O)[C@H](NC(=O)[C@H](C)NC(=O)CNC(=O)[C@@H](NC=O)C(C)C)C(C)C)C(C)C)C(=O)N[C@@H](Cc1c[nH]c2ccccc12)C(=O)N[C@H](CC(C)C)C(=O)N[C@@H](Cc1c[nH]c2ccccc12)C(=O)N[C@@H](C(=O)N[C@@H](Cc1c[nH]c2ccccc12)C(=O)N[C@@H](C(=O)N[C@@H](Cc1c[nH]c2ccccc12)C(=O)NCCO)C(C)C)C(C)C` [compound 12707] (For-VGA[dV]A[dL]V[dD](NHMe)W[dL]W[dV]W[dV]W-NHCH2CH2OH), which cell viability/% [1] is on record?
**A.** 100.0%

**Q.** What about the antibacterial activity [2] of the same compound?
**A.** -

**Q.** And the “H+/Na+ transport activity normalized” value [3]?
**A.** 1.06
